Experimental findings from patent publication US20190256509A1, “HISTONE DEMETHYLASE INHIBITORS” (CHRYSALIS, INC., priority 2016, published 2019) are described below.

Broadly, the IC50 is the concentration needed to halve the response being measured. A higher IC50 goes with lower potency.

The target in the assay is T1, KDM5B enzyme (Homo sapiens, UniProt Q9UGL1).
T1 construct: Reaction Biology Corp (named for the assay, not expressly for the enzyme)
T1 sequence (Q9UGL1 whole entry): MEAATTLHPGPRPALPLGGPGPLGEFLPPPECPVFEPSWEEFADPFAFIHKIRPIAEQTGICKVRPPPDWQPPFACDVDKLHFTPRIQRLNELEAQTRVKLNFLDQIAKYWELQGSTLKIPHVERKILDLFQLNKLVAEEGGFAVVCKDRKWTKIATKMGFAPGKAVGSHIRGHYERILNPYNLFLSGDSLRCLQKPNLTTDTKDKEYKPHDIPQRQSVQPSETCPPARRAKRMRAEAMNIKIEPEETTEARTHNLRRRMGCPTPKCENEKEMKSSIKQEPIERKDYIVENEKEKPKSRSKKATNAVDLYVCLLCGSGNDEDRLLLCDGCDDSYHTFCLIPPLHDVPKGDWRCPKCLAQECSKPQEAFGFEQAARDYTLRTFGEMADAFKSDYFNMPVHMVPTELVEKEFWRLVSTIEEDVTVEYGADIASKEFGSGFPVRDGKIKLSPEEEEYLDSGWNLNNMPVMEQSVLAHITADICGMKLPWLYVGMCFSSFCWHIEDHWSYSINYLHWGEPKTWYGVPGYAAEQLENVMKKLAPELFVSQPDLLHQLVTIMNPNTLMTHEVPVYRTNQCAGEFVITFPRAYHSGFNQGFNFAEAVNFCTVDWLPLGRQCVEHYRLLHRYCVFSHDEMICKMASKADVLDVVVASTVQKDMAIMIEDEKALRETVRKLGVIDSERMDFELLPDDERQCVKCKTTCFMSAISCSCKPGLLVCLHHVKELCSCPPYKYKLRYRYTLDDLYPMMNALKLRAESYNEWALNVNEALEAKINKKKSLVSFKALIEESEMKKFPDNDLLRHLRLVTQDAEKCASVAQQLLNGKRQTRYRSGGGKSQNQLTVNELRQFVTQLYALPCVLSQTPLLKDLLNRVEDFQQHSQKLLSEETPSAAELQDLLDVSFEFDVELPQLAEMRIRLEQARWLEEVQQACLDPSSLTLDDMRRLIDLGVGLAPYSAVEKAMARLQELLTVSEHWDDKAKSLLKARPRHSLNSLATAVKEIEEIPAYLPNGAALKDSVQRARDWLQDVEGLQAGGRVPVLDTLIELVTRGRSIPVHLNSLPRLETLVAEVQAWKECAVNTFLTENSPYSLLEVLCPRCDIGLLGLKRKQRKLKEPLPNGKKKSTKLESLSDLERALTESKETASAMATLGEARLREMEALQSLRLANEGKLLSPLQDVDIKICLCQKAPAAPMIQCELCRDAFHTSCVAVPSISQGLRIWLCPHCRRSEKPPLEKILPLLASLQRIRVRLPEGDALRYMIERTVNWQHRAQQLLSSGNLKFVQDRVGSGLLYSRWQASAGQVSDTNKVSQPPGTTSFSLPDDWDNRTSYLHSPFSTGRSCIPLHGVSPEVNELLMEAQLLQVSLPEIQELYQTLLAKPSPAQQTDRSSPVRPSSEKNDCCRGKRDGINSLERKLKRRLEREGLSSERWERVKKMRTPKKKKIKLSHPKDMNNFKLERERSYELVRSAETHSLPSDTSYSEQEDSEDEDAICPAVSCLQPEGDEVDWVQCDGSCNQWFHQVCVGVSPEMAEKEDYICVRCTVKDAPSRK
Put plainly: KDM5B HTRF (TR-FRET) demethylase inhibition assay. The format is biochemical. The note with it: 1.2 nM KDM5B, 30 nM Biotin-H3K4Me3 1-21 substrate, 10 point dose-response. As to the method:
Ten point dose-response curves for the compounds of Examples 1-135 were determined using a homogeneous time resolved fluorescence (HTRF) assay (Reaction Biology Corp, Malvern, Pa.). This assay combines fluorescence resonance energy transfer (FRET) with time resolve (TR) measurements (TR-FRET). The KDM5B α-ketoglutarate-dependent demethylase activity is calculated by measuring demethylation of a biotin labeled histone tri-methylated H3K4 substrate using an europium-cryptate (Eu)-labeled antibody donor specific for dimethylated histone H3K4 and a Streptavidin-XL665 acceptor that binds to the biotin group of substrate, and detecting FRET by exciting the reaction mixture at 320 nm and reading dual emissions at 615 nm and 665 nm.
Briefly, compounds disclosed herein were solubilized in DMSO and a series of 10, three-fold serial dilutions were made for each compound in 100% DMSO. The initial starting concentration for the serial dilutions of each compound was 10 μM or 100 μM. Control samples lacking compound, KDM5B enzyme or various reaction components also were prepared and processed in parallel with compound test samples.
An aliquot of each serial dilution of test compound was added to a 384 well plate (Corning Cat #3572) containing 1.2 nM KDM5B enzyme suspended in 50 mM Hepes, pH7.5, 50 mM NaCl, 0.01% Tween 20, 0.1% BSA, and 1% DMSO (final concentrations) in a 10 microliter reaction volume using a LABCYTE ECHO liquid handler. The samples were mixed, subjected to centrifugation and the plate was pre-incubated at room temperature for 15 minutes (min), to which 30 nM Biotin-H3K4Me3 1-21 substrate (Anaspec, Freemont Calif., Cat #64192), 20 μM Fe(II) and 20 μM α-ketoglutarate co-factors, and 100 μM Ascorbate were added to initiate the enzymatic reaction. The reaction mixture was incubated at room temperature for 45 minutes. A 10 μl aliquot of a detection mixture of Eu-labeled anti-histone H3K4Me2 antibody (CisBIO, Bedford Mass., Cat #610AXLB) and Streptavidin-XL665 (CisBIO, Bedford Mass., Cat #610 SAXLB) in 200 mM potassium fluoride and 10 mM EDTA was added and kinetic measurements were read at 5 minute intervals for a period of 30 minutes using an Envision Multiplate Reader (PerkinElmer Model 2102; excitation at 320 nm and emission reads at 615 nm and 665 nm). The IC50 value for each compound was determined from the 665/615 ratio obtained for each 10 point dose-response curve using GraphPad Prism 4 software with a sigmodial dose response.
On the technique in general: Time-resolved FRET reads energy transfer from a long-lived donor to a nearby acceptor.
For the compound `COc1ccc(CNc2ccc3nccn3c2C(=O)O)c(OC)c1` [Example 1], the IC50 is ≤ 500 nM. `O=C(O)c1c(NCc2ccccc2C(F)(F)F)ccc2nccn12` [Example 2] showed an IC50 of 500 to 1000 nM. Compound `O=C(O)c1c(NCc2ccc(Cl)c(C(F)(F)F)c2)ccc2nccn12` [Example 3] showed a concentration for half-maximal inhibition (IC50) of 500 to 1000 nM.

As for `O=C(O)c1c(NCc2cccc(Br)c2)ccc2nccn12` [Example 4], the IC50 is ≤ 500 nM.

`O=C(O)c1c(NCc2cc(C(F)(F)F)ccc2Cl)ccc2nccn12` [Example 5]: the IC50 was > 1000 nM.

Regarding `O=C(O)c1c(NCc2cc(C(F)(F)F)cc(C(F)(F)F)c2)ccc2nccn12` [Example 6], the IC50 is > 1000 nM. For `O=C(O)c1c(NCc2ccc(-c3ccccc3)cc2)ccc2nccn12` [Example 7], the IC50 is > 1000 nM. Turning to `COc1cc(Cl)ccc1CNc1ccc2nccn2c1C(=O)O` [Example 8], the IC50 was ≤ 500 nM. In the case of `O=C(O)c1c(NCc2cccc(Cl)c2Cl)ccc2nccn12` [Example 9], the IC50 is > 1000 nM. In the case of `O=C(O)c1c(NCc2c(Cl)cccc2Cl)ccc2nccn12` [Example 10], the IC50 was > 1000 nM. As to `COc1ccc(F)c(CNc2ccc3nccn3c2C(=O)O)c1F` [Example 11], the IC50 is > 1000 nM. With `O=C(O)c1c(NCc2ccccc2OC(F)F)ccc2nccn12` [Example 12], the 50% inhibitory concentration (IC50) was 500 to 1000 nM.

Turning to `O=C(O)c1c(NCc2ccc(F)cc2Cl)ccc2nccn12` [Example 13], the IC50 was ≤ 500 nM. Next, `Cc1cccc(Cl)c1CNc1ccc2nccn2c1C(=O)O` [Example 14]: > 1000 nM. In the case of `O=C(O)c1c(NCc2ccccc2Cl)ccc2nccn12` [Example 15], the IC50 lay in the range of 500 to 1000 nM. Take `O=C(O)c1c(NCc2cccc(C(F)(F)F)c2F)ccc2nccn12` [Example 16]: the IC50 was > 1000 nM. As to `COc1ccccc1CNc1ccc2nccn2c1C(=O)O` [Example 17], the IC50 is > 1000 nM.

Regarding `O=C(O)c1c(NCc2cc(Cl)cc(Cl)c2)ccc2nccn12` [Example 18], the IC50 is > 1000 nM. As to `O=C(O)c1c(NCc2cccc(OC(F)F)c2)ccc2nccn12` [Example 19], the IC50 is > 1000 nM. As to `Cc1c(F)cccc1CNc1ccc2nccn2c1C(=O)O` [Example 20], the IC50 is > 1000 nM. For the compound `CN1CCN(c2ccc(CNc3ccc4nccn4c3C(=O)O)cc2)CC1` [Example 21], the IC50 was ≤ 500 nM. Next, `O=C(O)c1c(NCc2ccc(OC(F)F)cc2)ccc2nccn12` [Example 22]: > 1000 nM. Next, `O=C(O)c1c(NCc2ccc(F)cc2)ccc2nccn12` [Example 23]: ≤ 500 nM; `COc1ccc(CNc2ccc3nccn3c2C(=O)O)cc1` [Example 24]: > 1000 nM; `CC(C)(C)c1ccc(CNc2ccc3nccn3c2C(=O)O)cc1` [Example 25]: > 1000 nM.

For `Cc1ccc(Cl)cc1CNc1ccc2nccn2c1C(=O)O` [Example 26], the IC50 lay within 500 to 1000 nM.

On to `O=C(O)c1c(NCc2ccc(N3CCCCC3)cc2)ccc2nccn12` [Example 27], for which the 50% inhibitory concentration (IC50) is > 1000 nM.

As to `CC(C)Oc1ccc(CNc2ccc3nccn3c2C(=O)O)cc1` [Example 28], the IC50 was > 1000 nM. Consider `O=C(O)c1c(NCc2ccc3occc3c2)ccc2nccn12` [Example 29], for which the IC50 fell in the range of 500 to 1000 nM. Regarding `O=C(O)c1c(NCc2ccc3sccc3c2)ccc2nccn12` [Example 30], the IC50 is > 1000 nM.

With `O=C(O)c1c(NCc2cccc3ccccc23)ccc2nccn12` [Example 31], the IC50 is > 1000 nM.

For the compound `CN1CCN(c2ccccc2CNc2ccc3nccn3c2C(=O)O)CC1` [Example 32], the IC50 is ≤ 500 nM. Consider `Cc1ccc(CNc2ccc3nccn3c2C(=O)O)c(F)c1F` [Example 33], for which the IC50 was > 1000 nM. The compound `O=C(O)c1c(NCc2cc(Cl)ccc2Cl)ccc2nccn12` [Example 34] showed an IC50 of 500 to 1000 nM.

For `Cc1ccc(F)c(CNc2ccc3nccn3c2C(=O)O)c1F` [Example 35], the IC50 was > 1000 nM. Under `O=C(O)c1c(NCc2c(F)cccc2F)ccc2nccn12` [Example 36] stands > 1000 nM; under `O=C(O)c1c(NCc2ccccc2OC(F)(F)F)ccc2nccn12` [Example 37], 500 to 1000 nM; under `Cc1ccc(F)c(CNc2ccc3nccn3c2C(=O)O)c1Cl` [Example 38], > 1000 nM.

Take `O=C(O)c1c(NCc2c(F)cccc2Cl)ccc2nccn12` [Example 39]: the IC50 is > 1000 nM. For `CCOc1ccccc1CNc1ccc2nccn2c1C(=O)O` [Example 40], the IC50 is > 1000 nM. In turn, `O=C(O)c1c(NCc2ccc(C(F)(F)F)cc2F)ccc2nccn12` [Example 41] returned a concentration for half-maximal inhibition (IC50) of 500 to 1000 nM. Regarding `Cc1ccc(CNc2ccc3nccn3c2C(=O)O)c(F)c1` [Example 42], the IC50 was > 1000 nM. As for `O=C(O)c1c(NCc2cc(C(F)(F)F)ccc2F)ccc2nccn12` [Example 43], the IC50 is > 1000 nM. Under `O=C(O)c1c(NCc2ccccc2-c2ccccc2)ccc2nccn12` [Example 44] stands 500 to 1000 nM.

On to `O=C(O)c1c(NCc2ccc(F)c(F)c2)ccc2nccn12` [Example 45], for which the IC50 is ≤ 500 nM. Next, `COc1c(F)cc(CNc2ccc3nccn3c2C(=O)O)cc1F` [Example 46]: > 1000 nM; `COc1ccc(CNc2ccc3nccn3c2C(=O)O)cc1Cl` [Example 47]: 500 to 1000 nM.

As to `O=C(O)c1c(NCc2ccc(C(F)(F)F)c(F)c2)ccc2nccn12` [Example 48], the IC50 was > 1000 nM. For the compound `Cc1ccc(CNc2ccc3nccn3c2C(=O)O)cc1F` [Example 49], the IC50 is > 1000 nM.

On to `O=C(O)c1c(NCc2cccc(F)c2)ccc2nccn12` [Example 50], for which the IC50 was > 1000 nM. Take `COc1ccc(CNc2ccc3nccn3c2C(=O)O)cc1O` [Example 51]: the IC50 is ≤ 500 nM.

Consider `O=C(O)c1c(NCc2cccc(-c3ccccc3)c2)ccc2nccn12` [Example 52], for which the IC50 was > 1000 nM.

For `O=C(O)c1c(NCc2ccc(-c3cccs3)cc2)ccc2nccn12` [Example 53], the IC50 is > 1000 nM.

Consider `O=C(O)c1c(NCc2ccc(Oc3ccc(F)cc3)cc2)ccc2nccn12` [Example 54], for which the IC50 was > 1000 nM. The compound `O=C(O)c1c(NCc2ccc(C(F)(F)F)cc2)ccc2nccn12` [Example 55] registered an IC50 of 500 to 1000 nM. For `O=C(O)c1c(NCc2ccc(Cl)cc2F)ccc2nccn12` [Example 56], the half-inhibitory concentration (IC50) is > 1000 nM. As for `Cc1cc(Cl)ccc1CNc1ccc2nccn2c1C(=O)O` [Example 57], the IC50 was 500 to 1000 nM. As for `O=C(O)c1c(NCc2ccc(Cl)c(F)c2)ccc2nccn12` [Example 58], the half-inhibitory concentration (IC50) was > 1000 nM. Regarding `N#Cc1ccc(CNc2ccc3nccn3c2C(=O)O)cc1` [Example 59], the IC50 was ≤ 500 nM. Under `O=C(O)c1c(NCc2ccc(F)cc2C(F)(F)F)ccc2nccn12` [Example 60] stands ≤ 500 nM; under `Cc1cc(F)ccc1CNc1ccc2nccn2c1C(=O)O` [Example 61], 500 to 1000 nM; under `O=C(O)c1c(NCc2ccc(F)c(C(F)(F)F)c2)ccc2nccn12` [Example 62], 500 to 1000 nM. Regarding `Cc1cc(CNc2ccc3nccn3c2C(=O)O)ccc1F` [Example 63], the IC50 is > 1000 nM. Regarding `O=C(O)c1c(NCc2ccc(N3CCOCC3)cc2)ccc2nccn12` [Example 64], the IC50 was > 1000 nM. With `CCCCc1ccc(CNc2ccc3nccn3c2C(=O)O)cc1` [Example 65], the IC50 is > 1000 nM.

Turning to `O=C(O)c1c(NCc2cc(Cl)ccc2F)ccc2nccn12` [Example 66], the IC50 was > 1000 nM. With `O=C(O)c1c(NCc2cc(F)ccc2C(F)(F)F)ccc2nccn12` [Example 67], the IC50 was ≤ 500 nM. Regarding `Cc1ccc(F)cc1CNc1ccc2nccn2c1C(=O)O` [Example 68], the IC50 was > 1000 nM. On to `Cc1ccc(C(F)(F)F)c(CNc2ccc3nccn3c2C(=O)O)c1` [Example 69], for which the IC50 was > 1000 nM. For `Cc1ccc(Cl)c(CNc2ccc3nccn3c2C(=O)O)c1F` [Example 70], the IC50 is > 1000 nM.

Consider `O=C(O)c1c(NCc2c(F)cc(F)cc2F)ccc2nccn12` [Example 71], for which the IC50 was 500 to 1000 nM. Next, `O=C(O)c1c(NCc2ccc(Cl)cc2Cl)ccc2nccn12` [Example 72]: 500 to 1000 nM. In the case of `O=C(O)c1c(NCc2cc(F)cc(F)c2)ccc2nccn12` [Example 73], the IC50 was > 1000 nM. Consider `O=C(O)c1c(NCc2ccc(Cl)cc2)ccc2nccn12` [Example 74], for which the IC50 is > 1000 nM.
